In patent publication US9931313B2, “Methods of treating proliferative disorders with malate or derivatives thereof” (Beth Israel Deaconess Medical Center, Inc., priority 2012, dated 2018):

How the values were obtained:
A549 cells = test: Cisplatin treatment of A549 cells with or without ME2 knockdown, trypan blue count; type: cell-based, human; conditions: 20 μM cisplatin, 72 h
Method: ME2 knockdown and control cells were plated in 6-well plates, and 24 h later, the cell were treated with 20 μM cisplatin. After 72 h, cells were stained with trypan blue and live cells were counted. […] Approximately 5×10^6 ME2 deficient cells from ME2 specific shRNA or control pLKO cells were subcutaneously implanted into female athymic nude mice as described in Materials and Methods. Tumor size was measured and calculated. C: Depletion of ME2 inhibits mucin-1 and vimentin expression and increase differentiation marker E-cadherin and ZO-1 expression in vivo.

A549 xenograft tumors = test: Cisplatin treatment of xenograft tumors from wild type and ME2 knockdown A549 cells; type: in vivo, athymic nude mice
Method: ME2 knockdown and control cells were plated in 6-well plates, and 24 h later, the cell were treated with 20 μM cisplatin. After 72 h, cells were stained with trypan blue and live cells were counted. […] Approximately 5×10^6 ME2 deficient cells from ME2 specific shRNA or control pLKO cells were subcutaneously implanted into female athymic nude mice as described in Materials and Methods. Tumor size was measured and calculated. C: Depletion of ME2 inhibits mucin-1 and vimentin expression and increase differentiation marker E-cadherin and ZO-1 expression in vivo. Animal experiments were performed under federal guidelines and approved by the Institutional Animal Care and Use Committee (IACUC) of the Beth Israel Deaconess Medical Center (Approval number 0342007). A549 xenografts in nude mice were generated by following the description of […] et al., in Biochem. Pharmacol. 72: 671-680 (2006). Briefly, approximately 10^7 ME2 deficient or control A549 cells resuspended in 200 μl of a serum-free culture medium/Matrigel mixture (1:1) were subcutaneously injected into the right and left flanks of male nude/nu/nu athymic mice, respectively. Tumor-bearing mice were sacrificed after 6-8 weeks and tumor masses were measured or imaged before excision. […]

K562 cell = conditions: supplementation; Ren et al., PLoS One 5 (2010); cited from earlier work

| Compound | sensitivity of A549 cells to cisplatin treatment with ME2 deficiency (A549 cells) | later growth of ME2 knockdown tumors (resumed at about 350 mm^3) (A549 xenograft tumors; ME2 knockdown A549 xenografts) | E-cadherin and mucin-1 expression in vivo (A549 xenograft tumors; combination of ME2 depletion and cisplatin) | K562 cell differentiation (K562 cell) |
| --- | --- | --- | --- | --- |
| N.N.[Cl][Pt][Cl] [cisplatin] | increased the sensitivity | prevent this later tumor growth | affected |  |
| O=C([O-])CC(O)C(=O)[O-].[Na+].[Na+] (stereo not shown) [sodium malate] |  |  |  | failed to induce |
